Test results published in article PMC11249637, “Interaction of the Atypical Tetracyclines Chelocardin and Amidochelocardin with Renal Drug Transporters” (ACS Pharmacology & Translational Science, 2024).

Experiments:
mOat3 = target: T1, mOat3 (Mus musculus, UniProt O88909); experiment: Two-point inhibition of mOat3-mediated ES uptake in transfected HEK293 cells; format: in vitro ADME; conditions: ES 1 μM, 1 min
T1 construct: expressed in transfected cells; host or cells: HEK293
T1 sequence (O88909 1-537): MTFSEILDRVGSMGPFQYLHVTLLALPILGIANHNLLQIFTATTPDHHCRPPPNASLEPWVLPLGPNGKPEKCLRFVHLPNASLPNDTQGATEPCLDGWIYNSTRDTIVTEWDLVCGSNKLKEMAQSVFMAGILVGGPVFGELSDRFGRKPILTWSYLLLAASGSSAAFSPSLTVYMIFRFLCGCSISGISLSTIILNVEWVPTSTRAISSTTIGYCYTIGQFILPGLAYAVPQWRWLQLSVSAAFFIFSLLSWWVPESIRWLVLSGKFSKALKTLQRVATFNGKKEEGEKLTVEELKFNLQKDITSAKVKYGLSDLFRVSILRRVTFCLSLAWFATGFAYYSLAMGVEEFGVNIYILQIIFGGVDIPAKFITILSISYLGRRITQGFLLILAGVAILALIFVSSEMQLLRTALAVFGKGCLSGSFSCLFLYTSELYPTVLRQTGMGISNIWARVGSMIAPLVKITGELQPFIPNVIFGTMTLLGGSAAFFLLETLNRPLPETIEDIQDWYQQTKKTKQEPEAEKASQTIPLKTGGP
Description: (§1) Well-characterized mOct1-, mOct2-, mOat1-, mOat2-, mOat3-, mMate1-, hOAT1-, hOAT3-, hOAT4-, hMRP2-, mMdr1a- and mMdr1b-transfected HEK293 cells and the respective vector-transfected control HEK293 cells were used.[42],[51],[52] All HEK293 cells (transporter-transfected and vector-transfected) were cultured in DMEM (Sigma, high glucose, 10% FBS, 1% penicillin (10,000 Units/mL)/streptomycin (10 mg/mL)) at 37°C under 5% CO2 in humidified atmosphere. The cells were routinely checked for the absence of mycoplasma infection. For the preparation of HEK293 cell monolayers, 24-well plates were pretreated with a poly-D-lysine hydrobromide solution (0.1 mg/mL). […]
(§2) For the uptake assay, the growth medium was aspirated, and each well was rinsed three times with 0.5 mL of incubation buffer (HBSS supplemented with 20 mM HEPES, pH 7.4) and incubated for 20 min at 37 °C. […] Cells were solubilized with 0.6 mL of 1N NaOH overnight and transferred into scintillation vials. ^3H and ^14C contents were measured after the addition of 2.5 mL of scintillator in a liquid scintillation counter.
(§3) The cellular protein amount was determined in parallel for each cell line (vector- and transporter-transfected) from six wells in a different 24-well reference plate using the Bradford method. […]
(§4) The inhibitory effect (I(%)) was calculated according to the formula: [drawing 5] […]

hOAT1 = target: T2, hOAT1 (Homo sapiens, UniProt Q4U2R8); experiment: Two-point inhibition of hOAT1-mediated PAH uptake in transfected HEK293 cells; format: in vitro ADME; conditions: PAH 10 μM, 1 min
T2 construct: expressed in transfected cells; host or cells: HEK293
T2 sequence (Q4U2R8 1-563): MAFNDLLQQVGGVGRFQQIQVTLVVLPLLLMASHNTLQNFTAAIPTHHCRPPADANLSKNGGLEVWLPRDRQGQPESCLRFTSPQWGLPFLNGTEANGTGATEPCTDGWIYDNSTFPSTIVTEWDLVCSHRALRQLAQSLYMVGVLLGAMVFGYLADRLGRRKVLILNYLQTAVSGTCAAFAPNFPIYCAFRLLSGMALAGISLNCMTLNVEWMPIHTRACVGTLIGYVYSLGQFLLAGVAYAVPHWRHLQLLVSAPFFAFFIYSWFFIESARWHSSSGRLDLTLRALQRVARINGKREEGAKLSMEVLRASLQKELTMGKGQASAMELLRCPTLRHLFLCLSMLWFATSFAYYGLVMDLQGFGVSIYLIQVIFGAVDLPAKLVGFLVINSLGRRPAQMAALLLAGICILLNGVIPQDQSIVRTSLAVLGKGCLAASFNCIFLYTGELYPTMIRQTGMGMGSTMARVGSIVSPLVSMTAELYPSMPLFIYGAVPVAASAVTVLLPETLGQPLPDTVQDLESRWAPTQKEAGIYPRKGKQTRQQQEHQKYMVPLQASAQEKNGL
Description: as §1, §2, §3, §4

uropathogenic E. coli = test system: uropathogenic E. coli; design: method as in PMID 38047701; conditions: cited from earlier work

| Compound | inhibitory effect on mOat3 (in words) (mOat3; 1 and 10 μM) | inhibitory effect on hOAT1 (in words) (hOAT1; 1 and 10 μM) | effect in ascending urinary tract infection model (in words) (uropathogenic E. coli) | inhibition at 10 µM (mOat3; HEK293, at 10 μM, read-out: inhibitory effect on mOat3) | inhibition at 10 µM (hOAT1; HEK293, at 10 μM, read-out: inhibitory effect on hOAT1) |
| --- | --- | --- | --- | --- | --- |
| Cc1ccc2c(C)c3c(c(O)c2c1O)C(=O)[C@@]1(O)C(=O)C(C(N)=O)=C(O)[C@@H](N)[C@H]1C3 [CDCHD, amidochelocardin] | no inhibitory effect | No inhibitory effect | pronounced effects |  |  |
| CC(=O)C1=C(O)[C@@H](N)[C@H]2Cc3c(c(O)c4c(O)c(C)ccc4c3C)C(=O)[C@@]2(O)C1=O [CHD, chelocardin] |  |  | pronounced effects | > 50% | ~50% |
